Tests used:
Format in all cases: biochemical
MINK = MINK (Homo sapiens, UniProt Q8N4C8); experiment: Protein kinase inhibition, MINK; conditions: Rate (μM) 2, read-out: % Control
EphA3 = EphA3 (Homo sapiens, UniProt P29320); experiment: Protein kinase inhibition, EphA3; conditions: Rate (μM) 2, read-out: % Control
Lyn = Lyn (Mus musculus, UniProt P25911); experiment: Protein kinase inhibition, Lyn (mouse); conditions: Rate (μM) 2, read-out: % Control
ROCKI [1] = molecular target: ROCKI (Homo sapiens, UniProt Q13464); experiment: Protein kinase inhibition, ROCKI (human); conditions: Rate (μM) 2, read-out: % Control
Hck = Hck (Homo sapiens, UniProt P08631); experiment: Protein kinase inhibition, Hck; conditions: Rate (μM) 2, read-out: % Control
KDR = KDR (Homo sapiens, UniProt P35968); experiment: Protein kinase inhibition, KDR; conditions: Rate (μM) 2, read-out: % Control
Lck = Lck (Homo sapiens, UniProt P06239); experiment: Lck Kinase Activity
Sequence of Lck (P06239 whole entry): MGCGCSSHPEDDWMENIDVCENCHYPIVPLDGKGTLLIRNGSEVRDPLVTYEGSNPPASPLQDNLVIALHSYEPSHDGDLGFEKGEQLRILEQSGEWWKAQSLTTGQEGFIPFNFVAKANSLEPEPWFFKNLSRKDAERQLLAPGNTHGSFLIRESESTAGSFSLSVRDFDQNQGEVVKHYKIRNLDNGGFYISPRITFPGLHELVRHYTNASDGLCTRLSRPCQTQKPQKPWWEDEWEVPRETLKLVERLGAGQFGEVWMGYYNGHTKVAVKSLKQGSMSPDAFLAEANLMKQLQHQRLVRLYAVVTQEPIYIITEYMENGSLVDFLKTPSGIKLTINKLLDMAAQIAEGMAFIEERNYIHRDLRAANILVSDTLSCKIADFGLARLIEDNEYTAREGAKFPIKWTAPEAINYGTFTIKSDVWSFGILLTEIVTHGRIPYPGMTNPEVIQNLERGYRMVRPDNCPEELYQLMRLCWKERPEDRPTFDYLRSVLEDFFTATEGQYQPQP
Protocol: (§1) Lck Kinase Activity: In a final reaction volume of 25 ml, Lck (h) (5-10 mU) is incubated with 50 mM Tris pH 7.5, 0.1 mM EGTA, 0.1 mM Na3VO4, 250 μM KVEKIGEGTYGVVYK (Cdc2 peptide), 10 mM MgAcetate and [γ-^33P-ATP] (specific activity approx. 500 cpm/pmol, concentration as required). The reaction is initiated by the addition of the MgATP mix. After incubation for 40 minutes at room temperature, the reaction is stopped by the addition of 5 μl of a 3% phosphoric acid solution. 10 μl of the reaction is then spotted onto a P30 filtermat and washed three times for 5 minutes in 75 mM phosphoric acid and once in methanol prior to drying and scintillation counting.

P70S6K = P70S6K (Homo sapiens, UniProt P23443); experiment: Protein kinase inhibition, P70S6K; conditions: Rate (μM) 2, read-out: % Control
p38β = p38β (Homo sapiens, UniProt Q15759); experiment: SAPK2b Kinase Activity (p38β); conditions: compound at 2 μm
Sequence of p38β (Q15759 whole entry): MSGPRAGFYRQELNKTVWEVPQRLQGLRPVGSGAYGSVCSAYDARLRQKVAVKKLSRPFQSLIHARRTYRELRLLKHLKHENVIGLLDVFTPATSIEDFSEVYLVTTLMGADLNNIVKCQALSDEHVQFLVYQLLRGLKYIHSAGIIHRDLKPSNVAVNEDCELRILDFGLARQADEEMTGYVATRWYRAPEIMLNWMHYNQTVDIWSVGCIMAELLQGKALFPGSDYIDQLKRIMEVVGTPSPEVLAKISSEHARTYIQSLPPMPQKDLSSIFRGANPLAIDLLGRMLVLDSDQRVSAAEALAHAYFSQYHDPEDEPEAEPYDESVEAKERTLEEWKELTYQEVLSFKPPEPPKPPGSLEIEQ
Protocol: as §1, with “SAPK2b Kinase” for “Lck Kinase”, “25 μl, SAPK2b” for “25 ml, Lck”, “with 25” for “with 50”, “7.5, 0.02” for “7.5, 0.1”, “EGTA, 0.33 mg/ml myelin basic protein,” for “EGTA, 0.1 mM Na3VO4, 250 μM KVEKIGEGTYGVVYK (Cdc2 peptide),”, “is the” for “is then”

p38γ = p38γ (Homo sapiens, UniProt P53778); experiment: SAPK3 Kinase Activity (p38γ)
Sequence of p38γ (P53778 whole entry): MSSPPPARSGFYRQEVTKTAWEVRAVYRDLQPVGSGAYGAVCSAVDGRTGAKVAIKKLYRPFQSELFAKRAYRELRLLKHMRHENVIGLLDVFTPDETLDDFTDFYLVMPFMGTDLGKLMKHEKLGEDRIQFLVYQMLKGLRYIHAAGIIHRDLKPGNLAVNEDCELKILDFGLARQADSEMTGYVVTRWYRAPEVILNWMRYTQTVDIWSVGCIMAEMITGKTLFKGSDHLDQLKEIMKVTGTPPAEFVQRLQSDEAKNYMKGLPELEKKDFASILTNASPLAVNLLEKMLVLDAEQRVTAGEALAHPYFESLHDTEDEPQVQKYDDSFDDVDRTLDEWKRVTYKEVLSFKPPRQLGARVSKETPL
Protocol: SAPK3 Kinase Activity: In a final reaction volume of 25 μl, SAPK3 (h) (5-10 mU) is incubated with 25 mM Tris pH 7.5, 0.02 mM EGTA, 0.33 mg/ml myelin basic protein, 10 mM MgAcetate and [γ-^33P-ATP] (specific activity approx. 500 cpm/[…], concentration as required). The reaction is initiated by the addition of the MgATP mix. After incubation for 40 minutes at room temperature, the reaction is stopped by the addition of 5 μL of a 3% phosphoric acid solution. 10 μL of the reaction is the spotted onto a P30 filtermat and washed three times for 5 minutes in 75 mM phosphoric acid and once in methanol prior to drying and scintillation counting.

c-RAF = c-RAF (Homo sapiens, UniProt P04049); experiment: c-RAF Kinase Activity
Sequence of c-RAF (P04049 whole entry): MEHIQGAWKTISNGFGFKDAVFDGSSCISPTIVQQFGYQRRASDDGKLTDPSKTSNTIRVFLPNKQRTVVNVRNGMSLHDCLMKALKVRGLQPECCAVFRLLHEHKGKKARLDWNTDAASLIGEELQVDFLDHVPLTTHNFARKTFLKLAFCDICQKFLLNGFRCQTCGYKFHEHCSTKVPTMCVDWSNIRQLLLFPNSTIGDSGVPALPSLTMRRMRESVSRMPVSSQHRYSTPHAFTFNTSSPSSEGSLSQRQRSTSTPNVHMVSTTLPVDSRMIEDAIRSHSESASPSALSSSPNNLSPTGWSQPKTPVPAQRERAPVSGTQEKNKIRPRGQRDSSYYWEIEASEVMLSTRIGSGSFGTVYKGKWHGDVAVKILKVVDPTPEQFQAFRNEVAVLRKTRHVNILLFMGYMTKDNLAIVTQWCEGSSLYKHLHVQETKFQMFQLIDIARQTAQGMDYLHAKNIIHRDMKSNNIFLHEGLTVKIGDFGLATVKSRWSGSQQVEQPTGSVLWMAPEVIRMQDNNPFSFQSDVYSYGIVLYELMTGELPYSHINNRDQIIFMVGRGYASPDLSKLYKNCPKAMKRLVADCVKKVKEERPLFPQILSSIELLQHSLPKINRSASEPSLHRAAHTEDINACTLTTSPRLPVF
Protocol: c-RAF Kinase Activity: In a final reaction volume of 25 μl, c-RAF (h) (5-10 mU) is incubated with 25 mM Tris pH 7.5, 0.02 mM EGTA, 0.66 mg/ml myelin basic protein, 10 mM MgAcetate, and [γ-^33P-ATP] (specific activity approx. 500 cpm/pmol, concentration as required). The reaction is initiated by the addition of the MgATP mix. After incubation for 40 minutes at room temperature, the reaction is stopped by the addition of 5 μl of a 3% phosphoric acid solution. 10 μl of the reaction is then spotted onto a P30 filtermat and washed three times for 5 minutes in 75 mM phosphoric acid and once in methanol prior to drying and scintillation counting.

ROCKI [2] = experiment: Protein kinase inhibition, ROCKI (rat); conditions: Rate (μM) 2
EphA8 = EphA8 (Homo sapiens, UniProt P29322); experiment: Protein kinase inhibition, EphA8; conditions: Rate (μM) 2, read-out: % Control
Ros = Ros (Homo sapiens, UniProt P08922); experiment: Protein kinase inhibition, Ros; conditions: Rate (μM) 2, read-out: % Control
Tie2 = Tie2 (Homo sapiens, UniProt Q02763); experiment: Tie2 Kinase Activity
Sequence of Tie2 (Q02763 23-1124): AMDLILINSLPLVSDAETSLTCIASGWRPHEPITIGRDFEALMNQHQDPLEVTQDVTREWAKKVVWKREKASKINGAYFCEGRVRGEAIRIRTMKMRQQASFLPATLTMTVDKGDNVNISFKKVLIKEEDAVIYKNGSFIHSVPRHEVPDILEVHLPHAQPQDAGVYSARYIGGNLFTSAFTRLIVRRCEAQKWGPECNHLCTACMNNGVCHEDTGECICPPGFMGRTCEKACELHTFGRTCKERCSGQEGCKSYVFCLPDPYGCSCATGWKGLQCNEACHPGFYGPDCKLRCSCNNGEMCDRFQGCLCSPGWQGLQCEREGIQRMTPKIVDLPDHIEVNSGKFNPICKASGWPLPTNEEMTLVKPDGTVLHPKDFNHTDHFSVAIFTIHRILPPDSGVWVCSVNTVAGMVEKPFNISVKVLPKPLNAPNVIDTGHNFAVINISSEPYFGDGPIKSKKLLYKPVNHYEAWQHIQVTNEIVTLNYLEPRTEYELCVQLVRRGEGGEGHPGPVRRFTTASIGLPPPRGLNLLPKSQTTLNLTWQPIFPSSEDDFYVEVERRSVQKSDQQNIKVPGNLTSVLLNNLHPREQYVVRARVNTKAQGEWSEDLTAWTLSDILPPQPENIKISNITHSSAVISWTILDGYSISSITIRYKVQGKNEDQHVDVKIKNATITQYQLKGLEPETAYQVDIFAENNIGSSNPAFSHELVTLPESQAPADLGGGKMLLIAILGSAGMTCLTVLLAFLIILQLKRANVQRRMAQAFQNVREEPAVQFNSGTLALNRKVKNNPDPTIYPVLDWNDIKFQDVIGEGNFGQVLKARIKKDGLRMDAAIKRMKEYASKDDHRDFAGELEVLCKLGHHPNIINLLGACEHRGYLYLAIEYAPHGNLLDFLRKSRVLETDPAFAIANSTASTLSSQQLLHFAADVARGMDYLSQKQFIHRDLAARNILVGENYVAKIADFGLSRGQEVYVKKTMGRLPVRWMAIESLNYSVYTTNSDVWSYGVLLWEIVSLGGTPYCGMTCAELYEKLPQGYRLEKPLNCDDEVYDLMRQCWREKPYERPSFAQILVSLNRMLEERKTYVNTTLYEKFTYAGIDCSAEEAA
Protocol: Tie2 Kinase Activity: In a final reaction volume of 25 μl, Tie2 (h) (5-10 mU) is incubated with 8 mM MOPS pH 7.0, 0.2 mM EDTA, 0.5 mM MnCl2, 0.1 mg/ml poly(Glu, Tyr) 4:1, 10 mM MgAcetate and [γ-^33P-ATP] (specific activity approx. 500 cpm/pmol, concentration as required). The reaction is initiated by the addition of the MgATP mix. After incubation for 40 minutes at room temperature, the reaction is stopped by the addition of 5 μl of a 3% phosphoric acid solution. 10 μl of the reaction is then spotted onto a Filtermat A and washed three times for 5 minutes in 75 mM phosphoric acid and once in methanol prior to drying and scintillation counting.

DDR2 = DDR2 (Homo sapiens, UniProt Q16832); experiment: Protein kinase inhibition, DDR2; conditions: Rate (μM) 2, read-out: % Control

Sequence of MINK (Q8N4C8 whole entry): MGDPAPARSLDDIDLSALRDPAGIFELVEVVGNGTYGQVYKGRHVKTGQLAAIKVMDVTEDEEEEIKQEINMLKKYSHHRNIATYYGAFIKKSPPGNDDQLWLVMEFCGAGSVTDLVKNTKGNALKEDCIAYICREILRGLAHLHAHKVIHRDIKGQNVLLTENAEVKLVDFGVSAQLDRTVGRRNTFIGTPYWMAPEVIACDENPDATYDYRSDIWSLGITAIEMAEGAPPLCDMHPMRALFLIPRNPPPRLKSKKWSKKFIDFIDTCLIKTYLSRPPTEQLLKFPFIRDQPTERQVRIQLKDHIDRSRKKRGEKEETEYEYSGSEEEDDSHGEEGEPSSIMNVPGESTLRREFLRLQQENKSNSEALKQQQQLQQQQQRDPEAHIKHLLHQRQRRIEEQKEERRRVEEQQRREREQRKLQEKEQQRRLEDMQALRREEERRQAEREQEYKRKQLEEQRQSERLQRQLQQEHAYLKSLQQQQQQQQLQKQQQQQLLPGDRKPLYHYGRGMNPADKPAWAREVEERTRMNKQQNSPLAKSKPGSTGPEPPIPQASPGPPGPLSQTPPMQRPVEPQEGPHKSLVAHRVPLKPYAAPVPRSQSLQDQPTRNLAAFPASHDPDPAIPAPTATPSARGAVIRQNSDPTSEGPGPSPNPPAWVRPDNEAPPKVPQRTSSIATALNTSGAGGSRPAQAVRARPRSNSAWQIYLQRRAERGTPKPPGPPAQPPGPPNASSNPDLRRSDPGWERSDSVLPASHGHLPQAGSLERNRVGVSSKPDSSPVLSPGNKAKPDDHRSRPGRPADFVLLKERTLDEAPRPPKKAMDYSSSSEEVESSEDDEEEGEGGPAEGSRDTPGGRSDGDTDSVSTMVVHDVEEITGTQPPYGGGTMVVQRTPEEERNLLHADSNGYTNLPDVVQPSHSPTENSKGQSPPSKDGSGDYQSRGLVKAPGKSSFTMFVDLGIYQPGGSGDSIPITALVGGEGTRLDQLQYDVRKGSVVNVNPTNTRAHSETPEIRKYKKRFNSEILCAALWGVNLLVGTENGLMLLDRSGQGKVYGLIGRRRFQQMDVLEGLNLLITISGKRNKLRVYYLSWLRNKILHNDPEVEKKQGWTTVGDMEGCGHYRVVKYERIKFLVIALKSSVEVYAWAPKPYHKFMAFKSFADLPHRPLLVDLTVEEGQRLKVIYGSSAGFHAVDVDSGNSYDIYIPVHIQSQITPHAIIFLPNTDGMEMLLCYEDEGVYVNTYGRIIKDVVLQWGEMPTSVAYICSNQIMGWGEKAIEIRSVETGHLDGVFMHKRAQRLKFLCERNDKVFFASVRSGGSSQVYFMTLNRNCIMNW
Sequence of Lyn (P25911 whole entry): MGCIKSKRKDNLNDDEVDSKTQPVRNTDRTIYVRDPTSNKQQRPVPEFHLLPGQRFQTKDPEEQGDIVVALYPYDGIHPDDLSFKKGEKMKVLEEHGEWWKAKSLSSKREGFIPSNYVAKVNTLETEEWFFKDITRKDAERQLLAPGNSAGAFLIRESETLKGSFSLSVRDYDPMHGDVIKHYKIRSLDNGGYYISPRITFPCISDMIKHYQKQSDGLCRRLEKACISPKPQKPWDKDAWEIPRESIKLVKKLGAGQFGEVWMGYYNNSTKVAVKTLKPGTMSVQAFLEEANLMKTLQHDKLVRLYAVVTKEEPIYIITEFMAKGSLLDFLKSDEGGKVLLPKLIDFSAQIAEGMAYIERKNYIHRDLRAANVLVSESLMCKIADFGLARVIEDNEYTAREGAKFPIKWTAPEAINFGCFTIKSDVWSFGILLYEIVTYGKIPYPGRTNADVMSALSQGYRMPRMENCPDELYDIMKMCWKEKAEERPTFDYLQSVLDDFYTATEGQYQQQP

remaining activity at 2 µM (MINK): 51 to 75%
remaining activity at 2 µM (EphA3): 76 to 100%
remaining activity at 2 µM (Lyn): 76 to 100%
remaining activity at 2 µM (ROCKI [1]): 51 to 75%
remaining activity at 2 µM (Hck): 76 to 100%
remaining activity at 2 µM (KDR): 76 to 100%
remaining activity at 2 µM (Lck; 40 min, Lck, Human, Rate (μM) 2, read-out: % Control): 51 to 75%
% Inhibition at 2 μm (Lck; LCK, compound at 2 μm): 51-75%
remaining activity at 2 µM (P70S6K): 51 to 75%
% Inhibition at 2 μm (p38β): 76-100%
remaining activity at 2 µM (p38γ; 40 min, P38g, Human, Rate (μM) 2, read-out: % Control): 76 to 100%
% Inhibition at 2 μm (p38γ; p38γ, compound at 2 μm): 76-100%
remaining activity at 2 µM (c-RAF; 40 min, cRaf, Human, Rate (μM) 2, read-out: % Control): 76 to 100%
% Inhibition at 2 μm (c-RAF; c-RAF, compound at 2 μm): 76-100%
% inhibition (ROCKI [2]): 51-75%
remaining activity at 2 µM (EphA8): 76 to 100%
remaining activity at 2 µM (Ros): 76 to 100%
remaining activity at 2 µM (Tie2; 40 min, Tie2, Human, Rate (μM) 2, read-out: % Control): 76 to 100%
% Inhibition at 2 μm (Tie2; Tie2, compound at 2 μm): 76-100%
remaining activity at 2 µM (DDR2): 76 to 100%
Structure (SMILES): CC(C)(C)c1cc(C(=O)N2CCS(=O)(=O)CC2)c(NC(=O)Nc2ccc(Oc3ccncc3)cc2)s1 [Example 3, 1-[5-tert-Butyl-3-(1,1-dioxo-1λ^6-thiomorpholine-4-carbonyl)thiophen-2-yl]-3-[4-(pyridin-4-yloxy)phenyl]urea]
